Reference: patent US9440950B2, “Arginine methyltransferase inhibitors and uses thereof” (Epizyme, Inc., priority 2013, dated 2016)

target: T1, human PRMT6 (Homo sapiens, UniProt Q96LA8); experiment: PRMT6 Biochemical Assay; details: peptide substrate, 3H-SAM Flashplate assay
T1 construct: Flag-PRMT6-His; made in house; host or cells: HEK 293F cells (BacMam virus, pFastBacMam)
From the text: S-adenosylmethionine (SAM), S-adenosylhomocysteine (SAH), bicine, Tween20, dimethylsulfoxide (DMSO), bovine skin gelatin (BSG), sodium butyrate and Tris(2-carboxyethyl)phosphine hydrochloride solution (TCEP) were purchased from Sigma-Aldrich at the highest level of purity possible. ^3H-SAM was purchase from American Radiolabeled Chemicals with a specific activity of 80 Ci/mmol. 384-well streptavidin Flashplates were purchased from PerkinElmer.
Peptide representative of human histone H4 residues 36-50 was synthesized with an N-terminal linker-affinity tag motif and a C-terminal amide cap by 21st Century Biochemicals. The peptide was purified by high-performance liquid chromatography (HPLC) to greater than 95% purity and confirmed by liquid chromatography mass spectrometry (LC-MS). The sequence was Biot-Ahx-[…]-amide and contained a monomethylated lysine at position 44 (SEQ ID NO.:5).
Full-length human PRMT6 (NM_018137.2) transcript clone was amplified from an HEK 293 cDNA library, incorporating a flanking 5′ sequence encoding a FLAG tag ([…]) (SEQ ID NO.:6) fused directly to Ser 2 of PRMT6 and a 3′ sequence encoding a hexa His sequence (HHHHHH) fused directly to Asp 375. The amplified gene was subcloned into pFastBacMam (Viva Biotech).
Recombinant baculovirus were generated according to Bac-to-Bac kit instructions (Life Technologies). […] Infections were carried out at 37° C. for 48 hours, harvested by centrifugation, and stored at −80° C. for purification.
Column was washed with 20 mM imidazole in the same buffer and Flag-PRMT6-His was eluted with 150 mM imidazole. Pooled fractions were dialysed against buffer Ni-A and further purified by anti-flag M2 affinity chromatography. Flag-PRMT6-His was eluted with 200 ug/ml FLAG peptide in the same buffer. Pooled fractions were dialysed in 20 mM Tris, 150 mM NaCl, 10% glycerol and 5 mM β-mercaptoethanol, pH 7.8. The purity of recovered protein was 95%.
General Procedure for PRMT6 Enzyme Assays on Peptide Substrates.
The assays were all performed in a buffer consisting of 20 mM Bicine (pH=7.6), 1 mM TCEP, 0.005% BSG, and 0.002% Tween 20, prepared on the day of use. Compounds in 100% DMSO (1 ul) were spotted into a polypropylene 384-well V-bottom plates (Greiner) using a Platemate Plus outfitted with a 384-channel head (Thermo Scientific). DMSO (1 ul) was added to Columns 11, 12, 23, 24, rows A-H for the maximum signal control and 1 ul of SAH, a known product and inhibitor of PRMT6, was added to columns 11, 12, 23, 24, rows I-P for the minimum signal control. A cocktail (40 ul) containing the PRMT6 enzyme was added by Multidrop Combi (Thermo-Fisher). The compounds were allowed to incubate with PRMT6 for 30 min at room temperature, then a cocktail (10 ul) containing SAM and peptide was added to initiate the reaction (final volume=51 ul). The final concentrations of the components were as follows: PRMT6 was 1 nM, ^3H-SAM was 200 nM, non-radiolabeled SAM was 250 nM, peptide was 75 nM, SAH in the minimum signal control wells was 1 mM, and the DMSO concentration was 2%. The assays were stopped by the addition of non-radiolabeled SAM (10 ul) to a final concentration of 400 uM, which dilutes the ^3H-SAM to a level where its incorporation into the peptide substrate is no longer detectable. 50 ul of the reaction in the 384-well polypropylene plate was then transferred to a 384-well Flashplate and the biotinylated peptides were allowed to bind to the streptavidin surface for at least 1 hour before being washed once with 0.1% Tween20 in a Biotek ELx405 plate washer. The plates were then read in a PerkinElmer TopCount plate reader to measure the quantity of ^3H-labeled peptide bound to the Flashplate surface, measured as disintegrations per minute (dpm) or alternatively, referred to as counts per minute (cpm).
Where dpm=disintegrations per minute, cmpd=signal in assay well, and min and max are the respective minimum and maximum signal controls. […]

T1 sequence (Q96LA8 with tags, fused parts or gaps): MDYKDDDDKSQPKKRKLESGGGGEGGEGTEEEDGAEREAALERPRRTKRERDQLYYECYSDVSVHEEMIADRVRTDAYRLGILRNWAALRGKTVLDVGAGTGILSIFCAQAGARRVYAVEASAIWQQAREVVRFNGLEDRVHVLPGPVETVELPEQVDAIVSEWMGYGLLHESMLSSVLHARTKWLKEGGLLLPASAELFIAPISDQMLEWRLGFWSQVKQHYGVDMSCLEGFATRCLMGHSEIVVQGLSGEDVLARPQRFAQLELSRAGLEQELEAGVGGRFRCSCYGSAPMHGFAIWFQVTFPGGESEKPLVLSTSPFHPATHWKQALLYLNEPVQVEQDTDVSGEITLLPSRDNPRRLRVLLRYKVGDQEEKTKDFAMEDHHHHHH

Q: How did the IC50 turn out when CNCCN(C)Cc1c[nH]nc1-c1ccc(N)nc1 [Compound 3] was run?
A: ≤ 0.1 µM

Q: Which IC50 does the source give for Cc1cncc(-c2n[nH]cc2CN(C)CCN)c1 [Compound 6] here?
A: 3.01 to 10 µM

Q: With CN(CCN)Cc1c[nH]nc1-c1ccc(NCc2ccccc2)nc1 [Compound 25] as the compound, how does the IC50 read?
A: ≤ 0.1 µM

Q: CNCCN(C)Cc1c[nH]nc1-c1ccc(N(C)CCC(C)C)nc1 [Compound 30] was tested. Which IC50 did it give?
A: ≤ 0.1 µM

Q: With COc1cc(-c2n[nH]cc2CN(C)CCN)ccn1 [Compound 11] as the compound, how does the IC50 read?
A: ≤ 0.1 µM

Q: How did the IC50 turn out when COc1ncc(Cl)cc1-c1n[nH]cc1CN(C)CCN [Compound 14] was run?
A: 1.01 to 3 µM

Q: For CN(CCN)Cc1c[nH]nc1-c1cncc(S(C)(=O)=O)c1 [Compound 4], which IC50 is on record?
A: 1.01 to 3 µM

Q: For CC(C)CNc1ccc(-c2n[nH]cc2CN(C)CCN)cn1 [Compound 26], which IC50 is on record?
A: ≤ 0.1 µM

Q: With CN(CCN)Cc1c[nH]nc1-c1cncc(Cl)c1 [Compound 19] as the compound, how does the IC50 read?
A: ≤ 0.1 µM

Q: For CN(CCN)Cc1c[nH]nc1-c1ccncc1 [Compound 9], which IC50 is on record?
A: ≤ 0.1 µM

Q: Which IC50 does the source give for CN(CCN)Cc1c[nH]nc1-c1cncc(C#N)c1 [Compound 18] here?
A: 0.101 to 1 µM

Q: With CNCCN(C)Cc1c[nH]nc1-c1ccc(OCC(C)C)nc1 [Compound 35, N^1-((3-(6-iso-butoxypyridin-3-yl)-1H-pyrazol-4-yl)methyl)-N^1,N^2-dimethylethane-1,2-diamine] as the compound, how does the IC50 read?
A: ≤ 0.1 µM

Q: CN(CCN)Cc1c[nH]nc1-c1cncc(F)c1 [Compound 7] was tested. Which IC50 did it give?
A: ≤ 0.1 µM

Q: Which IC50 does the source give for CNCCN(C)Cc1c[nH]nc1-c1cccnc1 [Compound 1] here?
A: ≤ 0.1 µM

Q: CC(C)CN(C)c1ccc(-c2n[nH]cc2CN(C)CCN)cn1 [Compound 21] was tested. Which IC50 did it give?
A: 0.101 to 1 µM

Q: With Cc1cc(-c2n[nH]cc2CN(C)CCN)cnc1Cl [Compound 10] as the compound, how does the IC50 read?
A: ≤ 0.1 µM

Q: How did the IC50 turn out when CCN(CCC(C)C)c1ccc(-c2n[nH]cc2CN(C)CCNC)cn1 [Compound 34, N^1-((3-(6-(ethyl(isopentyl)amino)pyridin-3-yl)-1H-pyrazol-4-yl)methyl)-N^1,N^2-dimethylethane-1,2-diamine] was run?
A: 0.101 to 1 µM

Q: For COc1cc(-c2n[nH]cc2CN(C)CCN)c(Cl)cn1 [Compound 12], which IC50 is on record?
A: 0.101 to 1 µM

Q: For CNCCN(C)Cc1c[nH]nc1-c1ccc(N(C)C(C)C)nc1 [Compound 33, N^1-((3-(6-(isopropyl(methyl)amino)pyridin-3-yl)-1H-pyrazol-4-yl)methyl)-N^1,N^2-dimethylethane-1,2-diamine], which IC50 is on record?
A: 0.101 to 1 µM

Q: For COc1ncccc1-c1n[nH]cc1CN(C)CCN [Compound 15], which IC50 is on record?
A: 0.101 to 1 µM

Q: How did the IC50 turn out when CN(CCN)Cc1c[nH]nc1-c1ccc(C#N)nc1 [Compound 28, 5-(4-(((2-aminoethyl)(methyl)amino)methyl)-1H-pyrazol-3-yl)picolinonitrile] was run?
A: ≤ 0.1 µM

Q: How did the IC50 turn out when Cc1ccncc1-c1n[nH]cc1CN(C)CCN [Compound 17] was run?
A: 0.101 to 1 µM

Q: Which IC50 does the source give for COc1ccc(-c2n[nH]cc2CN(C)CCN)cn1 [Compound 5] here?
A: ≤ 0.1 µM

Q: With CCN(CC(C)C)c1ccc(-c2n[nH]cc2CN(C)CCNC)cn1 [Compound 36] as the compound, how does the IC50 read?
A: 1.01 to 3 µM

Q: With CN(CCN)Cc1c[nH]nc1-c1cccnc1 [Compound 8] as the compound, how does the IC50 read?
A: ≤ 0.1 µM

Q: Which IC50 does the source give for CN(CCN)Cc1c[nH]nc1-c1ccccn1 [Compound 27] here?
A: 3.01 to 10 µM

Q: How did the IC50 turn out when COc1ccncc1-c1n[nH]cc1CN(C)CCN [Compound 16] was run?
A: 0.101 to 1 µM

Q: With CNCCN(C)Cc1c[nH]nc1-c1ccc(O)nc1 [Compound 2] as the compound, how does the IC50 read?
A: 1.01 to 3 µM

Q: For CCN(CC)c1ccc(-c2n[nH]cc2CN(C)CCN)cn1 [Compound 24], which IC50 is on record?
A: 0.101 to 1 µM

Q: Which IC50 does the source give for CC(C)Oc1ccc(-c2n[nH]cc2CN(C)CCN)cn1 [Compound 22] here?
A: ≤ 0.1 µM

Q: For CN(CCN)Cc1c[nH]nc1-c1cnccc1C(F)(F)F [Compound 29], which IC50 is on record?
A: 0.101 to 1 µM

Q: CN(CCN)Cc1c[nH]nc1-c1ccc(N2CCOCC2)nc1 [Compound 20] was tested. Which IC50 did it give?
A: 0.101 to 1 µM

Q: Which IC50 does the source give for CN(CCN)Cc1c[nH]nc1-c1ccc(C(F)(F)F)nc1 [Compound 13, N^1-methyl-N^1-((3-(6-(trifluoromethyl)pyridin-3-yl)-1H-pyrazol-4-yl)methyl)ethane-1,2-diamine] here?
A: ≤ 0.1 µM

Q: Which IC50 does the source give for CNCCN(C)Cc1c[nH]nc1-c1ccc(N(C)CC(C)C)nc1 [Compound 32, N^1-((3-(6-(isobutyl(methyl)amino)pyridin-3-yl)-1H-pyrazol-4-yl)methyl)-N^1,N^2-dimethylethane-1,2-diamine] here?
A: 0.101 to 1 µM

Q: For CNCCN(C)Cc1c[nH]nc1-c1ccc(N(CC(C)C)CC(C)C)nc1 [Compound 31], which IC50 is on record?
A: 1.01 to 3 µM

Q: Which IC50 does the source give for CN(CCN)Cc1c[nH]nc1-c1ccc(N(C)Cc2ccccc2)nc1 [Compound 23] here?
A: ≤ 0.1 µM
